Several values for one entry are separate records, joined by “and”; a condition that tells them apart may be missing. Identical values can stand only once. Inconclusive results and toxic doses are left out.
System: L1210 leukemia ip in BDF1 mice, survival T/C
Assay: NCI In Vivo Anticancer Drug Screen. Data for tumor model L1210 Leukemia (intraperitoneal) in B6D2F1 (BDF1) mice
Details: endpoint: mean survival time, higher = longer survival
Summary of the method: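 Tumor was transplanted into mice, which were then dosed with test compound or vehicle alone. Survival was recorded for each group, and the treated figure was expressed relative to the control figure.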

[1] = dose: 100.0 mg/kg/injection, schedule: Q01DX001 (ip), vehicle: saline with Tween-80
[2] = dose: 100.0 mg/kg/injection, schedule: Q01DX009 (ip), vehicle: saline with Tween-80
[3] = dose: 100.0 mg/kg/injection, schedule: Q04DX002 (ip), vehicle: saline with Tween-80
[4] = dose: 100.0 mg/kg/injection, schedule: Q04DX003 (ip), vehicle: saline with Tween-80
[5] = dose: 200.0 mg/kg/injection, schedule: Q01DX001 (ip), vehicle: saline with Tween-80
[6] = dose: 200.0 mg/kg/injection, schedule: Q01DX009 (ip), vehicle: saline with Tween-80
[7] = dose: 200.0 mg/kg/injection, schedule: Q04DX002 (ip), vehicle: saline with Tween-80
[8] = dose: 200.0 mg/kg/injection, schedule: Q04DX003 (ip), vehicle: saline with Tween-80
[9] = dose: 400.0 mg/kg/injection, schedule: Q01DX001 (ip), vehicle: saline with Tween-80
[10] = dose: 400.0 mg/kg/injection, schedule: Q01DX009 (ip), vehicle: saline with Tween-80
[11] = dose: 400.0 mg/kg/injection, schedule: Q04DX002 (ip), vehicle: saline with Tween-80
[12] = dose: 400.0 mg/kg/injection, schedule: Q04DX003 (ip), vehicle: saline with Tween-80
[13] = dose: 100.0 mg/kg/injection, schedule: Q01DX009 (ip), vehicle: Klucel (hydroxypropylcellulose) (HPC)
[14] = dose: 100.0 mg/kg/injection, schedule: Q04DX003 (ip), vehicle: Klucel (hydroxypropylcellulose) (HPC)
[15] = dose: 200.0 mg/kg/injection, schedule: Q04DX003 (ip), vehicle: Klucel (hydroxypropylcellulose) (HPC)
[16] = dose: 400.0 mg/kg/injection, schedule: Q01DX009 (ip), vehicle: Klucel (hydroxypropylcellulose) (HPC)
[17] = dose: 400.0 mg/kg/injection, schedule: Q04DX003 (ip), vehicle: Klucel (hydroxypropylcellulose) (HPC)
[18] = dose: 50.0 mg/kg/injection, schedule: Q01DX009 (ip), vehicle: saline
[19] = dose: 100.0 mg/kg/injection, schedule: Q01DX009 (ip), vehicle: saline
[20] = dose: 100.0 mg/kg/injection, schedule: Q04DX003 (ip), vehicle: saline
[21] = dose: 200.0 mg/kg/injection, schedule: Q01DX009 (ip), vehicle: saline
[22] = dose: 200.0 mg/kg/injection, schedule: Q04DX003 (ip), vehicle: saline
[23] = dose: 200.0 mg/kg/injection, schedule: Q01DX009 (ip), vehicle: Klucel (hydroxypropylcellulose) (HPC)
[24] = dose: 100.0 mg/kg/injection, schedule: Q01DX001 (ip), vehicle: saline
[25] = dose: 200.0 mg/kg/injection, schedule: Q01DX001 (ip), vehicle: saline
[26] = dose: 400.0 mg/kg/injection, schedule: Q01DX001 (ip), vehicle: saline
[27] = dose: 50.0 mg/kg/injection, schedule: Q01DX009 (ip), vehicle: saline with Tween-80
[28] = dose: 100.0 mg/kg/injection, schedule: Q01DX001 (ip), vehicle: carboxymethylcellulose (CMC)
[29] = dose: 200.0 mg/kg/injection, schedule: Q01DX001 (ip), vehicle: carboxymethylcellulose (CMC)
[30] = dose: 400.0 mg/kg/injection, schedule: Q01DX001 (ip), vehicle: carboxymethylcellulose (CMC)

In the case of Cc1ccc(Cl)cc1NC(=O)Nc1ccccc1O, the T/C [1] was 95 % of control, the T/C [2] was 94 % of control and 97 % of control and the T/C [3] was 94 % of control and 95 % of control. For the same compound, the T/C [4] was 106 % of control, the T/C [5] was 95 % of control and the T/C [6] was 94 % of control and 92 % of control. For the same compound, the T/C [7] was 94 % of control and 106 % of control, the T/C [8] was 103 % of control and the T/C [9] was 93 % of control. For the same compound, the T/C [10] was 109 % of control and 115 % of control, the T/C [11] was 93 % of control and 91 % of control and the T/C [12] was 94 % of control.

With COc1cc([N+](=O)[O-])ccc1NC(=O)C(Br)C(Br)C(=O)O (stereo not drawn) the T/C (dose: 100.0 mg/kg/injection, schedule: Q01DX009 (ip), vehicle: other) was 94 % of control.

Cc1cc(C)nc(NC(=O)Nc2ccccc2)c1 was tested, and the T/C [13] was 93 % of control, the T/C [14] was 94 % of control and the T/C [15] was 92 % of control. The T/C [16] was 100 % of control and the T/C [17] was 89 % of control.

CCC(COC(=O)c1ccc([N+](=O)[O-])cc1)NCCC1CCCCC1 (stereo not drawn) was tested, and the T/C (dose: 75.0 mg/kg/injection, schedule: Q01DX001 (ip), vehicle: saline) was 101 % of control, the T/C (dose: 150.0 mg/kg/injection, schedule: Q01DX001 (ip), vehicle: saline) was 104 % of control and the T/C (dose: 300.0 mg/kg/injection, schedule: Q01DX001 (ip), vehicle: saline) was 103 % of control.

CCCCCCCCCCCCOP(N)(=O)OCCCCCCCCCCCC was tested, and the T/C [18] was 90 % of control, the T/C [19] was 88 % of control and the T/C [20] was 94 % of control. The T/C [21] was 88 % of control and the T/C [22] was 90 % of control.

With Oc1ccccc1CNc1ccc(Br)cc1 the T/C (dose: 100.0 mg/kg/injection, schedule: Q04DX003 (ip), vehicle: gum acacia) was 95 % of control, the T/C (dose: 200.0 mg/kg/injection, schedule: Q04DX003 (ip), vehicle: gum acacia) was 95 % of control and the T/C (dose: 400.0 mg/kg/injection, schedule: Q04DX003 (ip), vehicle: gum acacia) was 93 % of control.

For O=C(CBr)CC(O)(C(F)(F)F)C(F)(F)F, the T/C (dose: 3.0 mg/kg/injection, schedule: Q01DX009 (ip), vehicle: saline) was 93 % of control, the T/C (dose: 6.0 mg/kg/injection, schedule: Q01DX009 (ip), vehicle: saline) was 103 % of control and the T/C (dose: 12.0 mg/kg/injection, schedule: Q01DX009 (ip), vehicle: saline) was 103 % of control.

O=C(COc1ccc(Cl)cc1Cl)NCCBr was tested, and the T/C [13] was 91 % of control, the T/C [23] was 92 % of control and the T/C [16] was 96 % of control.

In the case of CC(=O)Oc1cc(C)[nH]c(=O)c1, the T/C [24] was 101 % of control, the T/C [25] was 105 % of control and the T/C [26] was 101 % of control.

With O=C(CNC(=O)Nc1ccc(F)cc1)NNC(=O)Nc1ccc(Cl)c([N+](=O)[O-])c1 the T/C (dose: 25.0 mg/kg/injection, schedule: Q01DX009 (ip), vehicle: saline with Tween-80) was 94 % of control, the T/C [27] was 93 % of control and the T/C [2] was 102 % of control.

For C[N+]1(C)CCCCC1, the T/C (dose: 12.5 mg/kg/injection, schedule: Q01DX009 (ip), vehicle: saline) was 106 % of control, the T/C (dose: 25.0 mg/kg/injection, schedule: Q01DX009 (ip), vehicle: saline) was 101 % of control and the T/C [18] was 97 % of control. The T/C (dose: 50.0 mg/kg/injection, schedule: Q04DX003 (ip), vehicle: saline) was 101 % of control.

For Cc1cc(F)ccc1[As](=O)(O)O, the T/C (dose: 25.0 mg/kg/injection, schedule: Q04DX003 (ip), vehicle: saline with Tween-80) was 101 % of control.

With COc1ccc(C=O)c(O)c1 the T/C [13] was 92 % of control, the T/C [14] was 97 % of control and the T/C [23] was 103 % of control. For the same compound, the T/C [15] was 101 % of control, the T/C [16] was 95 % of control and the T/C [17] was 105 % of control.

For O=S1(=O)CCS(=O)(=O)C12CCCCC2, the T/C [24] was 98 % of control, the T/C [25] was 107 % of control and the T/C [26] was 90 % of control.

For Cc1ccc(C(=O)O)cc1S(=O)(=O)Cl, the T/C [27] was 113 % of control, the T/C [2] was 98 % of control and the T/C [4] was 102 % of control. For the same compound, the T/C [6] was 95 % of control, the T/C [8] was 87 % of control and the T/C [12] was 92 % of control.

In the case of COCCOc1nccc(N)n1, the T/C (dose: 25.0 mg/kg/injection, schedule: Q01DX001 (ip), vehicle: saline) was 97 % of control, the T/C (dose: 50.0 mg/kg/injection, schedule: Q01DX001 (ip), vehicle: saline) was 97 % of control and the T/C [24] was 100 % of control.

In the case of C=C(Br)CNC(=O)C1CCCCC1, the T/C (dose: 3.0 mg/kg/injection, schedule: Q04DX003 (ip), vehicle: Klucel (hydroxypropylcellulose) (HPC)) was 95 % of control, the T/C (dose: 6.0 mg/kg/injection, schedule: Q04DX003 (ip), vehicle: Klucel (hydroxypropylcellulose) (HPC)) was 107 % of control and the T/C (dose: 6.25 mg/kg/injection, schedule: Q01DX009 (ip), vehicle: Klucel (hydroxypropylcellulose) (HPC)) was 102 % of control. The T/C (dose: 12.0 mg/kg/injection, schedule: Q04DX003 (ip), vehicle: Klucel (hydroxypropylcellulose) (HPC)) was 93 % of control, the T/C (dose: 12.5 mg/kg/injection, schedule: Q01DX009 (ip), vehicle: Klucel (hydroxypropylcellulose) (HPC)) was 102 % of control and the T/C (dose: 25.0 mg/kg/injection, schedule: Q01DX009 (ip), vehicle: Klucel (hydroxypropylcellulose) (HPC)) was 100 % of control.

CCC(=O)OC1CCC2(C)C(=CCC3C2CCC2(C)C(C(C)CCCC(C)C)CCC32)C1 (stereo not drawn) was tested, and the T/C (dose: 100.0 mg/kg/injection, schedule: Q01DX001 (ip), vehicle: other) was 91 % of control and the T/C (dose: 200.0 mg/kg/injection, schedule: Q01DX001 (ip), vehicle: other) was 91 % of control.

With CC1(C)CCCC(OC(=O)c2ccc([N+](=O)[O-])cc2)C1 (stereo not drawn) the T/C [28] was 93 % of control, the T/C [29] was 96 % of control and the T/C [30] was 102 % of control.

With Cc1ccc(S(=O)(=O)OCCc2ccccc2)cc1 the T/C [2] was 100 % of control, the T/C [4] was 102 % of control and the T/C [6] was 100 % of control. For the same compound, the T/C [8] was 102 % of control, the T/C [10] was 96 % of control and the T/C [12] was 100 % of control.

For COC(=O)COC1=NCC([N+](=O)[O-])CC1 (stereo not drawn), the T/C [14] was 100 % of control, the T/C [15] was 107 % of control and the T/C [17] was 102 % of control.

For O=C(Cc1cccc([N+](=O)[O-])c1)Nc1ccccc1, the T/C [13] was 91 % of control, the T/C [14] was 96 % of control and the T/C [23] was 98 % of control. The T/C [15] was 96 % of control, the T/C [16] was 93 % of control and the T/C [17] was 102 % of control.

Nc1cc2c(cc1I)-c1ccc(Br)cc1C2 was tested, and the T/C [28] was 102 % of control, the T/C [29] was 107 % of control and the T/C [30] was 98 % of control.

In the case of CC(C)=CCC/C(C)=C/COC(=O)Cc1ccccc1, the T/C [2] was 103 % of control, the T/C [4] was 97 % of control and the T/C [6] was 110 % of control. The T/C [8] was 98 % of control, the T/C [10] was 103 % of control and the T/C [12] was 103 % of control.

In the case of CC(=O)NC1C(OCc2ccccc2)OC(COC(c2ccccc2)(c2ccccc2)c2ccccc2)C(OS(=O)(=O)c2ccc(C)cc2)C1OCc1ccccc1 (stereo not drawn), the T/C [1] was 100 % of control, the T/C [5] was 86 % of control and the T/C [9] was 100 % of control.

For N=C(N)CCc1ccccc1, the T/C (dose: 75.0 mg/kg/injection, schedule: Q04DX003 (ip), vehicle: saline) was 99 % of control and the T/C (dose: 150.0 mg/kg/injection, schedule: Q04DX003 (ip), vehicle: saline) was 98 % of control.

CCOc1cc(-c2ccc(OC)cc2)nc(N)n1 was tested, and the T/C [3] was 91 % of control, the T/C [7] was 97 % of control and the T/C [11] was 91 % of control.

CC(O)C(=O)OCCOc1ccc(Cl)cc1Cl (stereo not drawn) was tested, and the T/C [18] was 670 % of control, the T/C [19] was 91 % of control and the T/C [20] was 100 % of control. For the same compound, the T/C [21] was 95 % of control, the T/C [22] was 100 % of control and the T/C (dose: 400.0 mg/kg/injection, schedule: Q04DX003 (ip), vehicle: saline) was 97 % of control.

For CCc1cc(Cl)ccc1OCC(=O)O, the T/C [2] was 97 % of control and the T/C [6] was 105 % of control.

For COC(=O)C1=CCN(C)CC1, the T/C [24] was 93 % of control, the T/C [25] was 101 % of control and the T/C [26] was 93 % of control.
